From patent US20130095122A1, “Peptides or Antibodies Which Bind to Melanoma Inhibitory Activity (MIA) Protein” (priority 2010, published 2013)

What was measured:
[1] = molecular target: T1, MIA-MIA interaction (MIA-Ru(bpy)3 / immobilized MIA-biotin) (Homo sapiens, UniProt Q16674); test: heterogeneous transition-metal based fluorescence polarization (HTFP) assay of MIA-MIA interaction; assay type: binding; settings: MIA-Ru(bpy)3 55 fM in wells coated with MIA-biotin
T1 sequence (Q16674 25-131): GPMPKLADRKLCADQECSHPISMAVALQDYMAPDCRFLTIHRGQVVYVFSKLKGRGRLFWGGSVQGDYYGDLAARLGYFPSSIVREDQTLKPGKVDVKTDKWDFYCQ
Protocol: This becomes particularly evident in a heterogeneous transition metal-based fluorescence polarization assay (HTFP assay), wherein the ratio P/P0 is measured. P is the fluorescence polarization signal of a MIA protein labeled with a transition metal complex in the presence of substrate bound MIA-protein and of the peptide or antibody to be tested. P0 is the fluorescence polarization signal of free MIA-protein labeled with said luminescent transition metal complex in the absence of substrate bound MIA-protein and in the absence of said peptide or antibody. In the absence of the peptide or antibody, usually, the labeled MIA-protein would interact with the substrate bound MIA-protein, which, in turn, would contribute to a reduction in rotational mobility of the labeled MIA-protein, and therefore, the fluorescence polarization signal would increase upon such interaction. If, additionally, a peptide or antibody is present that interferes with such interaction, no or little dimerization/aggregation occurs and no or little increase in fluorescence polarization signal would be detected. […]
All measurements were performed at RT on a Polarstar Optima microplate reader (BMG Labtech, Offenburg, Germany). […]

[2] = test system: murine B16 melanoma cells; test: In vivo metastasis assay, Sig-AR71-HisTag expressing B16 clone injected into spleen; settings: mice injected with Sig-AR71-HisTag expressing clone
Protocol: To determine the effect of peptide AR71 on the metastatic potential of murine B16 melanoma cells in vivo, a previously developed mouse metastases model was used.^19 1×10^5 cells of the AR71-HisTag expressing B16 cell clone AR71-His K4 as well as the corresponding mock control cells were injected into the spleen of mice (n=8 for mock control cells as well as for AR71-HisTag K4 cells, respectively). After nine days, mice were sacrificed, the livers were resected and the number and size of visible black tumor nodules on the surface of the livers was noticed. Tissues were fixed in formalin and afterwards paraffin embedded sections were hematoxylin and eosin stained for histological analysis.
Nine days after injection of the cells into the spleen, the mice were sacrificed, the livers were resected and tissue sections were prepared. Here, the inventors used the stably transfected murine B16 melanoma cells with a Sig-AR71-HisTag containing construct. […] The interference of AR71-HisTag with MIA-MIA interaction was also confirmed in the HTFP assay using wells coated with MIA-biotin (data not shown). Subsequently, a Sig-AR71-HisTag clone as well as a corresponding mock control was injected into the spleen of C57B16 mice, respectively. […]

MIA = molecular target: T2, MIA (Homo sapiens, UniProt Q16674); test: NMR titration of 15N-labeled MIA with peptide; assay type: binding; settings: unlabeled peptide, increasing amounts
T2 sequence (Q16674 25-131): T1 sequence (Q16674 25-131)
Protocol: All spectra were recorded at 300 K and pH 7 on a Bruker DRX600 spectrometer equipped with a pulsed field gradient triple resonance probe. Water suppression in experiments recorded on samples in H2O was achieved by incorporation of a Watergate sequence into the various pulse sequences.^28-30 2D ^1H-^15N HSQC spectra with reduced signal loss due to fast exchanging protons were recorded using procedures described previously.^31 All spectra were processed with NMRPipe and analyzed with NMRView.^32-33 Data handling was performed with NMRView. Structure visualisation and superimpositions were done with PyMol (Delano, W. L., The PyMol Molecular Graphics System (2002) Delano Scientific, Palo Alto, Calif., USA).
The NMR titration of MIA with AR71 consisted of monitoring changes in chemical shifts and line widths of the backbone amide resonances of uniformly ^15N-enriched MIA samples as a function of ligand concentration.^34-37

binding of peptide to MIA (chemical shift perturbations) (MIA): MIA binds to this peptide ligand
Substance: Ac-FHWRYPLPLPGQ-NH2 [AR71, FHWRYPLPLPGQ]
interference with MIA-MIA interaction (decrease in fluorescence polarization signal, P/P0) [1]: particularly potent in dissociating MIA dimers
adverse effects on other organs and tissues [2]: No adverse effects
